The values that follow come from patent publication US10968215B2 (SHANGHAI HAIHE PHARMACEUTICAL CO., LTD., priority 2016, dated 2021).

Chain of PRC2 complex (EZH2 Y641F/EED/SUZ12/RbAp48/AEBP2) (Q15910 whole entry Y641F): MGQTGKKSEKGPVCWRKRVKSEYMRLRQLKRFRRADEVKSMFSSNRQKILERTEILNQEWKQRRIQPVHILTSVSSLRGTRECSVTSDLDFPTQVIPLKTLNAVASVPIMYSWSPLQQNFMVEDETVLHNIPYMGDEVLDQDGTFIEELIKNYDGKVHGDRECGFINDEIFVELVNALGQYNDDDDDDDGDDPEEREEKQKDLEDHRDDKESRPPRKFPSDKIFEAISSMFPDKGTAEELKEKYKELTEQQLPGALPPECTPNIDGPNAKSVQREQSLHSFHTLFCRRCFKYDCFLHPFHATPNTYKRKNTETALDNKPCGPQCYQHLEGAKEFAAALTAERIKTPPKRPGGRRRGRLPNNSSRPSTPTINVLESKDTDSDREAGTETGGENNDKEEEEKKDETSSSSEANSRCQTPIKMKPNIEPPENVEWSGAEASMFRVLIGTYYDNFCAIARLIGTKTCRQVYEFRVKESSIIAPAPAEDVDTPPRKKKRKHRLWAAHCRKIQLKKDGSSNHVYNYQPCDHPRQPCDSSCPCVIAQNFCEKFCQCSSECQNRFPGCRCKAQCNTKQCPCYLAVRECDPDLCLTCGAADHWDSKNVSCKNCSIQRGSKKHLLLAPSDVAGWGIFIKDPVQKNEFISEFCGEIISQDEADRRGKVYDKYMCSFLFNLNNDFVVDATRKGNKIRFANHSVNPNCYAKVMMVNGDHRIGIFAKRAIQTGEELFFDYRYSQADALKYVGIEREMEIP
Chain of PRC2 complex (EZH2 Y641F/EED/SUZ12/RbAp48/AEBP2) (O75530 whole entry partner): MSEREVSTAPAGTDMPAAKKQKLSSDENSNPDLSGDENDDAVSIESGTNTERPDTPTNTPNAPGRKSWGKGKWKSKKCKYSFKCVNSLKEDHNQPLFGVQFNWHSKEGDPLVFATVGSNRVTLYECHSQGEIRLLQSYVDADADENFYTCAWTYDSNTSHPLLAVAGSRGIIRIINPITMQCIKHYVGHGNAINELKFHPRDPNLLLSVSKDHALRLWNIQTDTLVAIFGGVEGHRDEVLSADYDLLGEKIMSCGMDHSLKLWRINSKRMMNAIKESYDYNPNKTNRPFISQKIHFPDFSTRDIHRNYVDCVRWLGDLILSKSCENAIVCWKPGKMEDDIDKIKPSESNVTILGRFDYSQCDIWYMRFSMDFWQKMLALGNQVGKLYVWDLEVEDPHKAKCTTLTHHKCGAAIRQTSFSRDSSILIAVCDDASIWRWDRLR
Chain of PRC2 complex (EZH2 Y641F/EED/SUZ12/RbAp48/AEBP2) (Q15022 whole entry partner): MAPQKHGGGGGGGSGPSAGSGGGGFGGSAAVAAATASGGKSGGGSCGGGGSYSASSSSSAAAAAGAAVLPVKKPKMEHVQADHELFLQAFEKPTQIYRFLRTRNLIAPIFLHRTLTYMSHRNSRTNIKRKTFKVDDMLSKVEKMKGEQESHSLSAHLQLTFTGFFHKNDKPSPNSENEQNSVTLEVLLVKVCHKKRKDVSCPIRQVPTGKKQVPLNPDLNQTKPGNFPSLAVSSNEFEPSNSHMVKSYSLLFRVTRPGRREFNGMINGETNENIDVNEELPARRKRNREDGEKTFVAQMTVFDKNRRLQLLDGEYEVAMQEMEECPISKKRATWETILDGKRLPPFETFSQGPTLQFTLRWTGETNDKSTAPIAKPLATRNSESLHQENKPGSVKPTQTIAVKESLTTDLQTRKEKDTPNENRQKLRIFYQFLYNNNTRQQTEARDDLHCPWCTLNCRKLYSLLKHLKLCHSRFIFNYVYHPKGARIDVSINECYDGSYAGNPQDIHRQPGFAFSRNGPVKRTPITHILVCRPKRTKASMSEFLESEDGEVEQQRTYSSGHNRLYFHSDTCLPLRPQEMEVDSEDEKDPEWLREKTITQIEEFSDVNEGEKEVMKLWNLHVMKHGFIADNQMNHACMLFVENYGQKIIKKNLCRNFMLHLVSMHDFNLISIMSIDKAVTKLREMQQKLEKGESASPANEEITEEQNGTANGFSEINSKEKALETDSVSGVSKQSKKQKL
Chain of PRC2 complex (EZH2 Y641F/EED/SUZ12/RbAp48/AEBP2) (Q09028 whole entry partner): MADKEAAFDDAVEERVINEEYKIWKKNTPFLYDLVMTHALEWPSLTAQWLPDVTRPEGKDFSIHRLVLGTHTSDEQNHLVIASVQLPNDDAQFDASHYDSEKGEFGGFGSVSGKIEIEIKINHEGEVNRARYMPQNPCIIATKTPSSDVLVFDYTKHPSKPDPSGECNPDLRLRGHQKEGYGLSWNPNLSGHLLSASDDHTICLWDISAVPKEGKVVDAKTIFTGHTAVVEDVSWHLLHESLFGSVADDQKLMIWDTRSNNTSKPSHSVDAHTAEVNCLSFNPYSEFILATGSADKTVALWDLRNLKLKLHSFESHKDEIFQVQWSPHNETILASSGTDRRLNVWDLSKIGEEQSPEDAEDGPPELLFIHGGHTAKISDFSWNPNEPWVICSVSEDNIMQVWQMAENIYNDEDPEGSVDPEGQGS
Chain of PRC2 complex (EZH2 Y641F/EED/SUZ12/RbAp48/AEBP2) (Q6ZN18 whole entry partner): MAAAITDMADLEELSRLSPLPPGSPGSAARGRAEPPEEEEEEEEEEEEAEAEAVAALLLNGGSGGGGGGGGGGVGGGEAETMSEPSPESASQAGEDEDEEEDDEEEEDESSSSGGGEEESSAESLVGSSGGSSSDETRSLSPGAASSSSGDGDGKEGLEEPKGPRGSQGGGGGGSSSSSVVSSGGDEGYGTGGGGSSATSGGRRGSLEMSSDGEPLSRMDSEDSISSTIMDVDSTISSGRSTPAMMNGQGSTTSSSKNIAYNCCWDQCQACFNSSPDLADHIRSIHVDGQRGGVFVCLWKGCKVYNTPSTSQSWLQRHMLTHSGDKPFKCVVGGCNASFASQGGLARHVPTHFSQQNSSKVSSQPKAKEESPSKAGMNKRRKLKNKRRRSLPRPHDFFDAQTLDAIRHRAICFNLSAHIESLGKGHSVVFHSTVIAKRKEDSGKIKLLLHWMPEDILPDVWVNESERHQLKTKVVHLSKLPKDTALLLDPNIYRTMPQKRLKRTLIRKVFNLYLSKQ

One assay addresses PRC2 complex (EZH2 Y641F/EED/SUZ12/RbAp48/AEBP2) (Homo sapiens (Human), UniProt Q15910, Y641F). Kind of assay: Activity of a compound to PRC2 complex (EZH2 Y641F), HTRF.
Conditions: not given
A general note: Time-resolved FRET reads energy transfer from a long-lived donor to a nearby acceptor.
As for `Cc1cc(=O)c(CNC(=O)c2cc3c(-c4ccc(N)nc4)ccn3c(C(C)N3CCN(CC(F)(F)F)CC3)c2C)c(C)[nH]1` (centres unmarked) [Compound 184, 1-(6-aminopyridin-3-yl)-N-((2,6-dimethyl-4-oxo-1,4-dihydropyridin-3-yl)methyl)-6-methyl-5-(1-(4-(2,2,2-trifluoroethyl)piperazin-1-yl)ethyl)indolizine-7-carboxamide], the 50% inhibitory concentration (IC50) (commonly the concentration at which inhibition is half-maximal) was less than 100 nM.

Compound `CCCc1cc(C)[nH]c(=O)c1CNC(=O)c1cc2c(-c3ccc(N)nc3)ccn2c(C(C)N2CCN(CC(F)(F)F)CC2)c1C` (centres unmarked) [Compound 185, 1-(6-aminopyridin-3-yl)-6-methyl-N-((6-methyl-2-oxo-4-propyl-1,2-dihydropyridine-3-yl)methyl)-5-(1-(4-(2,2,2-trifluoroethyl)piperazin-1-yl)ethyl)indolizine-7-carboxamide] showed an IC50 of less than 100 nM. The compound `Cc1[nH]c(=O)c(CNC(=O)c2cc3c(-c4ccc(N)nc4)ccn3c(C(C)N3CCN(CC(F)(F)F)CC3)c2C)c2c1CN(CC(C)C)CC2` (centres unmarked) [Compound 188, 1-(6-aminopyridin-3-yl)-N-((7-isobutyl-1-methyl-3-oxo-2,3,5,6,7,8-hexahydro-2,7-naphthyridin-4-yl)methyl)-6-methyl-5-(1-(4-(2,2,2-trifluoroethyl)piperazin-1-yl)ethyl)indolizine-7-carboxamide] registered an IC50 of 100 to 1000 nM.

On to `COc1cc(C)[nH]c(=O)c1CNC(=O)c1cc2c(-c3ccn[nH]3)ccn2c(C(C)OCc2nccs2)c1C` (centres unmarked) [Compound 191, N-((4-methoxy-6-methyl-2-oxo-1,2-dihydropyridin-3-yl)methyl)-6-methyl-1-(1H-pyrazol-5-yl)-5-(1-(thiazol-2-ylmethoxy)ethyl)indolizine-7-carboxamide], for which the IC50 was less than 100 nM. Turning to `COc1cc(C)[nH]c(=O)c1CNC(=O)c1cc2c(-c3cnc(C)nc3)ccn2c(C(C)N2CCN(CC(F)(F)F)CC2)c1C` (centres unmarked) [Compound 196, N-((4-methoxy-6-methyl-2-oxo-1,2-dihydropyridin-3-yl)methyl)-6-methyl-1-(2-methylpyrimidin-5-yl)-5-(1-(4-(2,2,2-trifluoroethyl)piperazin-1-yl)ethyl)indolizine-7-carboxamide], the concentration for half-maximal inhibition (IC50) was less than 100 nM. Compound `CCc1cc(-c2ccn3c(C(C)N4CCN(CC(F)(F)F)CC4)c(C)c(C(=O)NCc4c(OC)cc(C)[nH]c4=O)cc23)ccn1` (centres unmarked) [Compound 205, 1-(2-ethylpyridin-4-yl)-N-((4-methoxy-6-methyl-2-oxo-1,2-dihydropyridin-3-yl)methyl)-6-methyl-5-(1-(4-(2,2,2-trifluoroethyl)piperazin-1-yl)ethyl)indolizine-7-carboxamide] displayed a 50% inhibitory concentration (IC50) of less than 100 nM.

The same assay, now with this note: read-out: IC50 (EZH2_Y641F); EZH2 Y641F PRC2 complex, HTRF; class symbols.
For `Cc1cc(C(F)(F)F)c(CNC(=O)c2cc3c(-c4ccc(N)nc4)ccn3c(C(C)N3CCN(CC(F)(F)F)CC3)c2C)c(=O)[nH]1` (centres unmarked) [Compound 186, 1-(6-aminopyridin-3-yl)-6-methyl-N-((6-methyl-2-oxo-4-(trifluoromethyl)-1,2-dihydropyridine-3-yl)methyl)-5-(1-(4-(2,2,2-trifluoroethyl)piperazin-1-yl)ethyl)indolizine-7-carboxamide], the IC50 was less than 100 nM. For the compound `COc1c(CNC(=O)c2cc3c(-c4ccc(N)nc4)ccn3c(C(C)N3CCN(CC(F)(F)F)CC3)c2C)c(=O)[nH]n1C` (centres unmarked) [Compound 187, 1-(6-aminopyridin-3-yl)-N-((5-methoxy-1-methyl-3-oxo-2,3-dihydro-1H-pyrazole-4-yl)methyl)-6-methyl-5-(1-(4-(2,2,2-trifluoroethyl)piperazin-1-yl)ethyl)indolizine-7-carboxamide], the half-inhibitory concentration (IC50) was less than 100 nM. For `Cc1cc(C)c(CNC(=O)c2cc3c(-c4cnn(C5CCOCC5)c4)ccn3c(C(C)N3CCN(CC(F)(F)F)CC3)c2C)c(=O)[nH]1` (centres unmarked) [Compound 190, N-((4,6-dimethyl-2-oxo-1,2-dihydropyridin-3-yl)methyl)-6-methyl-1-(1-(tetrahydro-2H-pyran-4-yl)-1H-pyrazol-4-yl)-5-(1-(4-(2,2,2-trifluoroethyl)piperazin-1-yl)ethyl)indolizine-7-carb oxamide], the 50% inhibitory concentration (IC50) was less than 100 nM.

As to `COc1cc(C)[nH]c(=O)c1CNC(=O)c1cc2c(-c3ccc(C)nc3)ccn2c(C(C)N2CCN(CC(F)(F)F)CC2)c1C` (centres unmarked) [Compound 192, N-((4-methoxy-6-methyl-2-oxo-1,2-dihydropyridin-3-yl)methyl)-6-methyl-1-(6-methylpyridin-3-yl)-5-(1-(4-(2,2,2-trifluoroethyl)piperazin-1-yl)ethyl)indolizine-7-carboxamide], the IC50 was less than 100 nM. On the same count and under the same terms, next, `COc1cc(-c2ccn3c(C(C)N4CCN(CC(F)(F)F)CC4)c(C)c(C(=O)NCc4c(OC)cc(C)[nH]c4=O)cc23)ccn1` (centres unmarked) [Compound 193, N-((4-methoxy-6-methyl-2-oxo-1,2-dihydropyridin-3-yl)methyl)-1-(2-methoxypyridine-4-yl)-6-methyl-5-(1-(4-(2,2,2-trifluoroethyl)piperazin-1-yl)ethyl)indolizine-7-carboxamide]: less than 100 nM; `COc1cc(C)[nH]c(=O)c1CNC(=O)c1cc2c(-c3ccc(C)nn3)ccn2c(C(C)N2CCN(CC(F)(F)F)CC2)c1C` (centres unmarked) [Compound 199, N-((4-methoxy-6-methyl-2-oxo-1,2-dihydropyridin-3-yl)methyl)-6-methyl-1-(6-methylpyridazin-3-yl)-5-(1-(4-(2,2,2-trifluoroethyl)piperazin-1-yl)ethyl)indolizine-7-carboxamide]: less than 100 nM. Consider `COc1cc(C)[nH]c(=O)c1CNC(=O)c1cc2c(-c3ccn[nH]3)ccn2c(N(C)C2CCN(CC(F)(F)F)CC2)c1C` [Compound 202, N-((4-methoxy-6-methyl-2-oxo-1,2-dihydropyridin-3-yl)methyl)-6-methyl-5-(methyl(1-(2,2,2-trifluoroethyl)piperidin-4-yl)amino)-1-(1H-pyrazol-5-yl)indolizine-7-carboxamide], for which the concentration for half-maximal inhibition (IC50) was less than 100 nM.

Turning to `CCN(c1c(C)c(C(=O)NCc2c(OC)cc(C)[nH]c2=O)cc2c(-c3ccnc(N(C)C)c3)ccn12)C1CCN(CC(F)(F)F)CC1` [Compound 203, 1-(2-(dimethylamino)pyridin-4-yl)-5-(ethyl(1-(2,2,2-trifluoroethyl)piperidin-4-yl)amino)-N-((4-methoxy-6-methyl-2-oxo-1,2-dihydropyridin-3-yl)methyl)-6-methylindolizine-7-carboxamide], the IC50 is less than 100 nM. In the case of `CCN(c1c(C)c(C(=O)NCc2c(OC)cc(C)[nH]c2=O)cc2c(-c3ccnc(N(C)C)c3)ncn12)C1CCN(CC(F)(F)F)CC1` [Compound 204, 1-(2-(dimethylamino)pyridin-4-yl)-5-(ethyl(1-(2,2,2-trifluoroethyl)piperidin-4-yl)amino)-N-((4-methoxy-6-methyl-2-oxo-1,2-dihydropyridin-3-yl)methyl)-6-methylimidazo[1,5-a]pyridine-7-carboxamide], the IC50 was less than 100 nM. Consider `COc1cc(C)[nH]c(=O)c1CNC(=O)c1cc2c(-c3ccnc(C(C)C)c3)ccn2c(C(C)N2CCN(CC(F)(F)F)CC2)c1C` (centres unmarked) [Compound 206, 1-(2-isopropylpyridin-4-yl)-N-((4-methoxy-6-methyl-2-oxo-1,2-dihydropyridin-3-yl)methyl)-6-methyl-5-(1-(4-(2,2,2-trifluoroethyl)piperazin-1-yl)ethyl)indolizine-7-carboxamide], for which the IC50 was less than 100 nM. Regarding `COc1cc(C)[nH]c(=O)c1CNC(=O)c1cc2c(-c3ccnc4c3CCN4)ccn2c(C(C)N2CCN(CC(F)(F)F)CC2)c1C` (centres unmarked) [Compound 207], the concentration for half-maximal inhibition (IC50) is less than 100 nM. Still for that read-out and setting: next, `COC(C)c1c(C)c(C(=O)NCc2c(C)cc(C)[nH]c2=O)cc2cccn12` (centres unmarked) [Example 1, N-((4,6-Dimethyl-2-oxo-1,2-dihydropyridin-3-yl)methyl)-5-(1-methoxyethyl)-6-methylindolizine-7-carboxamide]: 100 to 1000 nM; `CCOC(C)c1c(C)c(C(=O)NCc2c(C)cc(C)[nH]c2=O)cc2cccn12` (centres unmarked) [Example 2, N-((4,6-Dimethyl-2-oxo-1,2-dihydropyridin-3-yl)methyl)-5-(1-ethoxyethyl)-6-methylindolizine-7-carboxamide]: 1000 to 10000 nM. Turning to `C=CCOC(C)c1c(C)c(C(=O)NCc2c(C)cc(C)[nH]c2=O)cc2cccn12` (centres unmarked) [Example 3], the half-maximal inhibitory concentration (IC50) lay within 100 to 1000 nM. As for `C=C(C)COC(C)c1c(C)c(C(=O)NCc2c(C)cc(C)[nH]c2=O)cc2cccn12` (centres unmarked) [Example 5, N-((4,6-Dimethyl-2-oxo-1,2-dihydropyridin-3-yl)methyl)-6-methyl-5-(1-((2-methylallyl)oxy)ethyl)indolizine-7-carboxamide], the IC50 was in the range of 100 to 1000 nM.

`Cc1cc(C)c(CNC(=O)c2cc3cccn3c(C(C)OCC(C)C)c2C)c(=O)[nH]1` (centres unmarked) [Example 6, N-((4,6-Dimethyl-2-oxo-1,2-dihydropyridin-3-yl)methyl)-5-(1-isobutyloxyethyl)-6-methylindolizine-7-carboxamide]: the half-maximal inhibitory concentration (IC50) was 1000 to 10000 nM. `Cc1cc(C)c(CNC(=O)c2cc3cccn3c(C(C)OC3C=CCCC3)c2C)c(=O)[nH]1` (centres unmarked) [Example 7, 5-((cyclohex-2-en-1-yloxy)ethyl)-N-((4,6-dimethyl-2-oxo-1,2-dihydropyridin-3-yl)methyl)-6-methylindolizine-7-carboxamide]: the IC50 is 100 to 1000 nM. For the compound `Cc1cc(C)c(CNC(=O)c2cc3cccn3c(C(C)OC3CCCCC3)c2C)c(=O)[nH]1` (centres unmarked) [Example 8, 5-(1-(cyclohexyloxy)ethyl)-N-((4,6-dimethyl-2-oxo-1,2-dihydropyridin-3-yl)methyl)-6-methylindolizine-7-carboxamide], the half-inhibitory concentration (IC50) was in the range of 100 to 1000 nM. As for `Cc1cc(C)c(CNC(=O)c2cc3cccn3c(C(C)OCc3ccccc3)c2C)c(=O)[nH]1` (centres unmarked) [Example 9, 5-(1-(benzyloxy)ethyl)-N-((4,6-dimethyl-2-oxo-1,2-dihydropyridin-3-yl)methyl)-6-methylindolizine-7-carboxamide], the half-inhibitory concentration (IC50) lay within 100 to 1000 nM. Take `Cc1cc(C)c(CNC(=O)c2cc3cccn3c(C(C)OCc3ccccn3)c2C)c(=O)[nH]1` (centres unmarked) [Example 15, N-((4,6-dimethyl-2-oxo-1,2-dihydropyridin-3-yl)methyl)-6-methyl-5-(1-(pyridine-2-ylmethoxy)ethyl)indolizine-7-carboxamide]: the IC50 was 100 to 1000 nM.
